Data on 54 molecules can be found in patent US20250228835A1, “PYRIDINYLOXYPYRIDINES AND RELATED COMPOUNDS AND THEIR USE IN TREATING MEDICAL CONDITIONS” (Rectify Pharmaceuticals, Inc., priority 2024, published 2025).

In general, EC50 refers to the concentration giving half of the maximal effect.

The target of the experiment is T1, ABCC6 WT (Homo sapiens, UniProt O95255).
T1 construct: expressed in transfected cells; host or cells: HEK-293 (transient, Lipofectamine 2000)
The experiment can be described thus: ABCC6 WT assay: HiBit protein expression. The class given is cell-based. To be noted: HEK-293 cells transiently expressing HiBit-tagged ABCC6 WT; 24 h treatment; top concentration 20 μM; read-out: ABCC6 WT EC50, Emax. The method, boiled down:
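HEK-293 cells transiently transfected with HiBit-tagged human ABCC6 WT cDNA, seeded 24 h post-transfection, treated 24 h at 37° C with ten 2-fold doses (top 20 μM final, 0.15% DMSO). HiBit lytic luminescence reports protein expression; Emax and EC50 derived.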
Background: The HiBiT peptide binds its large partner to form an active luciferase.

T1 sequence (O95255 whole entry): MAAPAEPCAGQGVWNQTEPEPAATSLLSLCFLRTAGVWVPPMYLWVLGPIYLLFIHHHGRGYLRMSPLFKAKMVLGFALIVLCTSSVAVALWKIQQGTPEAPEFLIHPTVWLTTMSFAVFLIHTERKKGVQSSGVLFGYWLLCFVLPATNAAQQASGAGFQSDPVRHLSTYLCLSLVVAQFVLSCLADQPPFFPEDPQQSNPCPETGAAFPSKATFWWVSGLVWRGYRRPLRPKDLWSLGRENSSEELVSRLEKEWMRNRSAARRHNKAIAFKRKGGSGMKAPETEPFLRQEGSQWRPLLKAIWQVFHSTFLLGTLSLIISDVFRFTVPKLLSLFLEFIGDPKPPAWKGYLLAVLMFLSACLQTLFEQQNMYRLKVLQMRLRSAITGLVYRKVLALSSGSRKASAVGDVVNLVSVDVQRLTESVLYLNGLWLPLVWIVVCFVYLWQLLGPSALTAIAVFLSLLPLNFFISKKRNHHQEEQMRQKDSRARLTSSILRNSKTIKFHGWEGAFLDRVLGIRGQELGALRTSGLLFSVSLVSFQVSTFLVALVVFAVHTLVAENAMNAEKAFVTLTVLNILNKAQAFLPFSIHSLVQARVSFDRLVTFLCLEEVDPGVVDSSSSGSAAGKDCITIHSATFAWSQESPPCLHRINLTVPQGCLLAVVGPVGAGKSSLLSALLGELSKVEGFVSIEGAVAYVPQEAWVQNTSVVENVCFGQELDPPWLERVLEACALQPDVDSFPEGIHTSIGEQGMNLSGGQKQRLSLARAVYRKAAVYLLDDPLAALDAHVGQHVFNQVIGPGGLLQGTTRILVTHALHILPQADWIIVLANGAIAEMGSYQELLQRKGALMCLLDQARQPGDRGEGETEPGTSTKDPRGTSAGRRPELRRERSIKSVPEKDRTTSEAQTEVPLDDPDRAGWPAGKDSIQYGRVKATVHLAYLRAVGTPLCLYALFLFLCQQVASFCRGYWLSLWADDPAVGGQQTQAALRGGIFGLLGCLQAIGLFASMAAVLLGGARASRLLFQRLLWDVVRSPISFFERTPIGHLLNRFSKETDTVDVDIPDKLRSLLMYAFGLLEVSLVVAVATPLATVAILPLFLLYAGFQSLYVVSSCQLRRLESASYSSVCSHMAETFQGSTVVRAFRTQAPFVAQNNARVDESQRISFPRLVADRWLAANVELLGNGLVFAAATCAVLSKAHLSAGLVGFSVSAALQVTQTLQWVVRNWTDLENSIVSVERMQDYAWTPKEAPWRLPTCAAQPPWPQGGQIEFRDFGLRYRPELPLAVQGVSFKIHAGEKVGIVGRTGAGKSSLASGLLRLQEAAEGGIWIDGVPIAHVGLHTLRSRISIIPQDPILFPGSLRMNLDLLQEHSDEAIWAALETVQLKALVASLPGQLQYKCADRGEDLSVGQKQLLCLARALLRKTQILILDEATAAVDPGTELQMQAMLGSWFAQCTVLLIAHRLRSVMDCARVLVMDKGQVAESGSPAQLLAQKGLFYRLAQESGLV

For `Cc1cc(C)c(Oc2nc(-c3cncc(Cl)c3)ccc2NS(=O)(=O)C2CC2)c(C)n1` [Compound I-238], the EC50 is under 1000 nM. Regarding `Cc1cc(C)c(Oc2nc(-c3ccnc(C#N)c3)ccc2NS(C)(=O)=O)c(C)n1` [Compound I-239], the EC50 was under 1000 nM.

As to `Cc1cc(C(F)(F)F)nc(C)c1Oc1nc(-c2cncc(C#N)c2)ccc1NS(C)(=O)=O` [Compound I-240], the EC50 was under 1000 nM.

As to `Cc1cc(C)c(Oc2nc(-c3cccc(C#N)n3)ccc2NS(C)(=O)=O)c(C)n1` [Compound I-241], the EC50 lay in the range of 10000 to 25000 nM. Next, `CCCS(=O)(=O)Nc1ccc(-c2cncc(C#N)c2)nc1Oc1c(C)cc(C)nc1C` [Compound I-242]: under 1000 nM.

Regarding `Cc1cc(C)c(Oc2nc(-c3cncc(C#N)c3)ccc2NS(=O)(=O)C2CCC2)c(C)n1` [Compound I-243], the EC50 was under 1000 nM. To `Cc1cc(C)c(Oc2nc(N3CCC(C#N)CC3)ccc2NS(C)(=O)=O)c(C)c1` [Compound I-244] belongs 1000 to 10000 nM; to `Cc1cc(C)c(Oc2nc(-c3cncc(C#N)c3)ccc2S(=N)(=O)C2CC2)c(C)c1` (stereo not drawn) [Compound I-245], under 1000 nM; to `Cc1cc(C)c(Oc2nc(-c3cncc(Cl)c3)ncc2NS(C)(=O)=O)c(C)n1` [Compound I-246], under 1000 nM.

`CCS(=O)(=O)Nc1ccc(-c2cncc(C#N)c2)nc1Oc1c(C)cc(C)nc1C` [Compound I-247]: the EC50 is under 1000 nM. Regarding `Cc1cc(C)c(Oc2nc(-c3cncc(C#N)c3)ccc2S(=N)(=O)C2CC2)c(C)n1` (stereo not drawn) [Compound I-248], the EC50 lay in the range of 1000 to 10000 nM. For the molecule `Cc1cc(C)c(Oc2nc(-c3cncc(C#N)c3)ccc2S(C)(=N)=O)c(C)n1` (stereo not drawn) [Compound I-249], the EC50 is at least 25000 nM. As to `Cc1cnc(Oc2nc(-c3cncc(C#N)c3)ccc2NS(C)(=O)=O)c(C)c1` [Compound I-250], the EC50 is at least 25000 nM. As to `Cc1cc(C2CC2)nc(C)c1Oc1nc(-c2cncc(C#N)c2)ccc1S(C)(=N)=O` (stereo not drawn) [Compound I-251], the EC50 fell in the range of 10000 to 25000 nM. As to `Cc1cc(C2CC2)nc(C)c1Oc1nc(-c2cncc(C#N)c2)ccc1NS(=O)(=O)C1CCC1` [Compound I-252], the EC50 lay in the range of 1000 to 10000 nM. Next, `Cc1cc(C)c(Oc2nc(-c3cncc(C#N)c3)ccc2NS(=O)(=O)C2CCC2)c(C)c1` [Compound I-253]: 1000 to 10000 nM; `Cc1cc(C2CC2)nc(C)c1Oc1nc(-n2cnc(C#N)c2)ccc1NS(C)(=O)=O` [Compound I-254]: under 1000 nM; `Cc1cc(C2CC2)nc(C)c1Oc1nc(-n2ccc(C#N)n2)ccc1NS(C)(=O)=O` [Compound I-255]: 1000 to 10000 nM. With `Cc1cc(C2CC2)nc(C)c1Oc1nc(-n2cc(C#N)cn2)ccc1NS(C)(=O)=O` [Compound I-256], the concentration for a half-maximal effect (EC50) was under 1000 nM. For `Cc1cc(C)c(Oc2nc(-n3ccc(C#N)n3)ccc2NS(C)(=O)=O)c(C)c1` [Compound I-257], the EC50 was in the range of 1000 to 10000 nM. Consider `Cc1cc(C)c(Oc2nc(-c3cncc(C#N)c3)ccc2S(N)(=O)=O)c(C)n1` [Compound I-258], for which the EC50 fell in the range of 10000 to 25000 nM. `Cc1cc(C)c(Oc2nc(-c3cncc(C#N)c3)cnc2NS(C)(=O)=O)c(C)n1` [Compound I-259]: the EC50 fell in the range of 1000 to 10000 nM.

With `Cc1cc(C)c(Oc2nc(-c3cncc(Cl)c3)cnc2NS(C)(=O)=O)c(C)n1` [Compound I-260], the EC50 lay in the range of 1000 to 10000 nM. Consider `Cc1cc(C2CC2)nc(C)c1Oc1nc(-c2cncc(S(C)(=O)=O)c2)ccc1NS(C)(=O)=O` [Compound I-263], for which the EC50 fell in the range of 1000 to 10000 nM.

As to `Cc1cc(C2CC2)nc(C)c1Oc1nc(-c2cncc(C#N)c2)ccc1NS(=O)(=O)C1CC1` [Compound I-264], the EC50 is at least 25000 nM. Take `CNS(=O)(=O)c1ccc(-c2cncc(C#N)c2)nc1Oc1c(C)cc(C)nc1C` [Compound I-265]: the EC50 lay within 1000 to 10000 nM. `Cc1cc(C)c(Oc2nc(-c3cncc(C#N)c3)ccc2NS(=O)(=O)C2CC2)c(C)n1` [Compound I-266]: the EC50 is under 1000 nM.

In the case of `Cc1cc(C)c(Oc2nc(-c3cncc(C#N)c3)ccc2NS(=O)(=O)C2COC2)c(C)c1` [Compound I-267], the EC50 is under 1000 nM. Next, `Cc1cc(C)c(Oc2nc(-c3cncc(C#N)c3)ccc2NS(C)(=O)=O)c(C2CC2)n1` [Compound I-268]: under 1000 nM; `Cc1cc(C)c(Oc2nc(-c3ccc(C#N)nc3C)ccc2NS(C)(=O)=O)c(C)n1` [Compound I-269]: 1000 to 10000 nM; `Cc1cc(C)c(Oc2nc(-c3cc(C#N)cnc3C)ccc2NS(C)(=O)=O)c(C)n1` [Compound I-270]: 1000 to 10000 nM. `Cc1cc(C2CC2)cc(C)c1Oc1nc(-c2cncc(C#N)c2)ccc1NS(C)(=O)=O` [Compound I-271]: the EC50 is under 1000 nM.

`Cc1cc(C)c(Oc2nc(-n3cnc(C#N)c3)ccc2N(C)S(C)(=O)=O)c(C)c1` [Compound I-272]: the EC50 fell in the range of 1000 to 10000 nM. For `Cc1cc(C)c(Oc2nc(-n3cnc(C#N)c3)ccc2NS(C)(=O)=O)c(C)c1` [Compound I-273], the EC50 is under 1000 nM. In the case of `Cc1cc(C)c(Oc2nc(-n3cc(C#N)cn3)ccc2NS(C)(=O)=O)c(C)c1` [Compound I-274], the EC50 was under 1000 nM.

`Cc1cc(C)c(Oc2nc(-c3cncc(C#N)c3)cnc2NS(C)(=O)=O)c(C)c1` [Compound I-275]: the EC50 was under 1000 nM. For the molecule `Cc1cc(C)c(Oc2nc(-c3cncc(C#N)c3)ccc2NS(=O)(=O)C(C)C)c(C)n1` [Compound I-276], the EC50 was under 1000 nM. As to `Cc1cc(C)c(Oc2nc(-c3cncc(Cl)c3)cnc2NS(C)(=O)=O)c(C)c1` [Compound I-277], the EC50 is under 1000 nM. As for `Cc1cc(C)c(Oc2nc(-c3cncc(S(C)(=O)=O)c3)ccc2NS(C)(=O)=O)c(C)c1` [Compound I-278], the EC50 was 1000 to 10000 nM. To `Cc1cc(C)c(Oc2nc(-c3cncc(C#N)c3)ccc2S(C)(=N)=O)c(C)c1` (stereo not drawn) [Compound I-279] belongs under 1000 nM; to `Cc1cc(C)c(Oc2nc(-c3cncc(C#N)c3)ccc2S(N)(=O)=O)c(C)c1` [Compound I-280], under 1000 nM; to `CNS(=O)(=O)c1ccc(-c2cncc(C#N)c2)nc1Oc1c(C)cc(C)cc1C` [Compound I-281], under 1000 nM. Next, `Cc1cc(C)c(Oc2nc(-c3cc(Cl)cnc3C)ccc2NS(C)(=O)=O)c(C)n1` [Compound I-282]: 1000 to 10000 nM.

Turning to `Cc1cc(C)c(Oc2nc(-c3cn(C)nc3C)ccc2NS(C)(=O)=O)c(C)c1` [Compound I-283], the EC50 was under 1000 nM.

As for `Cc1cc(C)c(Oc2nc(-c3cncc(C#N)c3)ncc2NS(C)(=O)=O)c(C)n1` [Compound I-284], the EC50 is under 1000 nM.

Consider `Cc1cc(C)c(Oc2nc(N3CCN(C(=O)C4CC4)CC3)ccc2S(N)(=O)=O)c(C)c1` [Compound I-285], for which the EC50 was 1000 to 10000 nM. On to `Cc1cc(C2CC2)nc(C2CC2)c1Oc1nc(-c2cncc(C#N)c2)ccc1S(=N)(=O)C1CC1` (stereo not drawn) [Compound I-317], for which the EC50 is under 1000 nM. Next, `Cc1cc(C(F)F)cc(C2CC2)c1Oc1nc(-c2cncc(C#N)c2)ccc1S(=N)(=O)C1CC1` (stereo not drawn) [Compound I-319]: under 1000 nM; `Cc1cc(C(F)F)nc(C2CC2)c1Oc1nc(-c2cncc(C#N)c2)ccc1S(=O)(=O)NC1CCOCC1` [Compound I-320]: 1000 to 10000 nM; `Cc1cc(C(F)F)nc(C2CC2)c1Oc1nc(-c2cncc(C#N)c2)ccc1S(=O)(=O)NC1COC1` [Compound I-321]: 1000 to 10000 nM.

For the molecule `Cc1cc(C2CC2)nc(C2CC2)c1Oc1nc(-c2cncc(C#N)c2)ccc1S(=O)(=O)NC1CCOCC1` [Compound I-322], the EC50 was in the range of 1000 to 10000 nM. Turning to `Cc1cc(C)c(Oc2[nH]c(-c3cncc(C#N)c3)cc(=O)c2NS(C)(=O)=O)c(C)n1` [Compound I-325], the EC50 is at least 25000 nM. Next, `Cc1cc(C)c(Oc2nc(-c3cc(C#N)c[nH]c3=O)ccc2NS(C)(=O)=O)c(C)n1` [Compound I-326]: 1000 to 10000 nM; `Cc1cc(C)c(Oc2nc(-c3cncc(C#N)c3)c(O)cc2NS(C)(=O)=O)c(C)n1` [Compound I-327]: under 1000 nM.
